From patent publication US20200368312A1 (priority 2017, published 2020)
In brackets after ≈: the same amount, converted by molar mass. Where two headings read alike, the source gives them in different places.

Key:
[1] = test system: MRSA isolate ATCC BAA-1556; test: MIC, CLSI-guided broth susceptibility testing (Example 10); type: cell-based, Staphylococcus aureus
Procedure: (§1) MIC Testing: Glycopeptide compounds were dissolved in 100% DMSO. In vitro activities were determined using CLSI-guided broth susceptibility testing to measure drug minimum inhibitory concentrations (MICs) of the compounds against the quality control strain ATCC 29213 (MSSA) and the MRSA isolate ATCC BAA-1556. Glycopeptides are defined as compounds of Formula (I), and their respective R^1, R^2, R^3 and R^4 groups. X is —O— for each compound in Table 2.

[2] = test system: quality control strain ATCC 29213 (MSSA); test: as above; type: cell-based, Staphylococcus aureus
Procedure: as §1

P. anaerobius = test: Broth microdilution MIC, P. anaerobius (Table 7); type: cell-based; conditions: P. anaerobius MMX 1208 ATCC 27337
P. micros = test: Broth microdilution MIC, P. micros (Table 7); type: cell-based; conditions: P. micros MMX 3546
S. haemolyticus (CoNS) = test: Broth microdilution MIC, S. haemolyticus (CoNS) (Table 7); type: cell-based; conditions: S. haemolyticus (CoNS) MMX 529 ATCC 29970
S. hominis (CoNS) = test: Broth microdilution MIC, S. hominis (CoNS) (Table 7); type: cell-based; conditions: S. hominis (CoNS) MMX 667 ATCC 27844
S. lugdenensis (CoNS) = test: Broth microdilution MIC, S. lugdenensis (CoNS) (Table 7); type: cell-based; conditions: S. lugdenensis (CoNS) MMX 8724
S. epidermidis (CoNS) = test: Broth microdilution MIC, S. epidermidis (CoNS) (Table 7); type: cell-based
Staphylococcus aureus = test: microbe, parasite or virus in culture; type: cell-based; conditions: for MIC: Staphylococcus aureus, read-out: MIC
P. acnes = test: Broth microdilution MIC, P. acnes (Table 7); type: cell-based
Streptococci = test: Broth microdilution MIC, Streptococci (Example 11, Table 7); type: cell-based
Enterococci = type: cell-based
C. perfringens = type: cell-based

## CNC(CC(C)C)C(=O)NC1C(=O)NC(CC(N)=O)C(=O)NC2C(=O)NC3C(=O)NC(C(=O)NC(C(=O)O)c4cc(O)cc(O)c4-c4cc3ccc4O)C(O)c3ccc(c(Cl)c3)Oc3cc2cc(c3OC2OC(CO)C(O)C(O)C2OC2CC(C)(NCc3ccc(-c4ccc(Cl)cc4)cc3)C(O)C(C)O2)Oc2ccc(cc2Cl)C1O (centres unmarked) [RV79]
[1]
  MIC Values MRSA 1556: 0.016 µg/mL (≈ 0.0097 µM)
[2]
  MIC Values MSSA 29213: 0.016 µg/mL (≈ 0.0097 µM)

## CN[C@H](CC(C)C)C(=O)N[C@H]1C(=O)N[C@@H](CC(N)=O)C(=O)N[C@H]2C(=O)N[C@H]3C(=O)N[C@H](C(=O)N[C@H](C(=O)O)c4cc(O)cc(O)c4-c4cc3ccc4O)[C@H](O)c3ccc(c(Cl)c3)Oc3cc2cc(c3O[C@@H]2O[C@H](CO)[C@@H](O)[C@H](O)[C@H]2O[C@H]2C[C@](C)(N)[C@H](O)[C@H](C)O2)Oc2ccc(cc2Cl)[C@H]1O [Vancomycin]
P. anaerobius
  MIC: 0.25 µg/mL (≈ 0.173 µM)
P. micros
  MIC: 0.5 µg/mL (≈ 0.345 µM)
S. haemolyticus (CoNS)
  MIC: 1 µg/mL (≈ 0.69 µM)
S. hominis (CoNS)
  MIC: 0.5 µg/mL (≈ 0.345 µM)
S. lugdenensis (CoNS)
  MIC: 0.5 µg/mL (≈ 0.345 µM)
S. epidermidis (CoNS); S. epidermidis (CoNS) MMX 762, MRSE
  MIC: 2 µg/mL (≈ 1.38 µM)
S. epidermidis (CoNS); S. epidermidis (CoNS) MMX 5145, MRSE
  MIC: 1 µg/mL (≈ 0.69 µM)
Staphylococcus aureus
  RV40 activity as compared to Comparator: 86 ×
Staphylococcus aureus; ATCC 33591 / MRSA, S. aureus MMX 5717 ATCC 33591, MRSA
  MIC: 1 µg/mL (≈ 0.69 µM)
Staphylococcus aureus; ATCC BAA-1756 / MRSA, S. aureus MMX 2011 ATCC BAA-1756, MRSA
  MIC: 1 µg/mL (≈ 0.69 µM)
Staphylococcus aureus; MRSA, S. aureus MMX 2010, MRSA
  MIC: 1 µg/mL (≈ 0.69 µM)
Staphylococcus aureus; MRSA, S. aureus MMX 3982, MRSA
  MIC: 0.5 µg/mL (≈ 0.345 µM)
Staphylococcus aureus; MRSA, S. aureus MMX 5985, MRSA
  MIC: 0.5 µg/mL (≈ 0.345 µM)
Staphylococcus aureus; MRSA, S. aureus MMX 5999, MRSA
  MIC: 0.5 µg/mL (≈ 0.345 µM)
Staphylococcus aureus; MRSA, S. aureus MMX 7899, MRSA
  MIC: 0.5 µg/mL (≈ 0.345 µM)
Staphylococcus aureus; MRSA, S. aureus MMX 7900, MRSA
  MIC: 0.5 µg/mL (≈ 0.345 µM)
Staphylococcus aureus; MRSA, S. aureus MMX 7901, MRSA
  MIC: 0.5 µg/mL (≈ 0.345 µM)
Staphylococcus aureus; MRSA, S. aureus MMX 7902, MRSA
  MIC: 1 µg/mL (≈ 0.69 µM)
Staphylococcus aureus; MRSA, S. aureus MMX 7903, MRSA
  MIC: 1 µg/mL (≈ 0.69 µM)
Staphylococcus aureus; MSSA, S. aureus MMX 2490, MSSA
  MIC: 1 µg/mL (≈ 0.69 µM)
Staphylococcus aureus; MSSA, S. aureus MMX 7907, MSSA
  MIC: 0.5 µg/mL (≈ 0.345 µM)
Staphylococcus aureus; MSSA, S. aureus MMX 7908, MSSA
  MIC: 1 µg/mL (≈ 0.69 µM)
Staphylococcus aureus; S. aureus MMX 4665, hVISA
  MIC: 4 µg/mL (≈ 2.76 µM)
Staphylococcus aureus; S. aureus MMX 5989, Mu3, hVISA
  MIC: 1 µg/mL (≈ 0.69 µM)
Staphylococcus aureus; VISA, S. aureus MMX 1723, Mu50, VISA
  MIC: 8 µg/mL (≈ 5.52 µM)
Staphylococcus aureus; VISA, S. aureus MMX 2124, VISA, DaptoNS
  MIC: 4 µg/mL (≈ 2.76 µM)
Staphylococcus aureus; VISA, S. aureus MMX 4658, VISA
  MIC: 4 µg/mL (≈ 2.76 µM)
Staphylococcus aureus; VISA, S. aureus MMX 4660, VISA
  MIC: 4 µg/mL (≈ 2.76 µM)
P. acnes; P. acnes MMX 7942 ATCC 6919
  MIC: 0.25 µg/mL (≈ 0.173 µM)
P. acnes; P. acnes MMX 7946 ATCC 11827
  MIC: 0.25 µg/mL (≈ 0.173 µM)
Streptococci; S. agalactiae MMX 427 ATCC 13813
  MIC: 0.25 µg/mL (≈ 0.173 µM)
Streptococci; S. agalactiae MMX 4088
  MIC: 0.25 µg/mL (≈ 0.173 µM)
Streptococci; S. agalactiae MMX 4115, erm^R
  MIC: 0.25 µg/mL (≈ 0.173 µM)
Streptococci; S. anginosus (AGS) MMX 1201 ATCC 33397
  MIC: 0.5 µg/mL (≈ 0.345 µM)
Streptococci; S. constellatus (AGS) MMX 5677
  MIC: 0.25 µg/mL (≈ 0.173 µM)
Streptococci; S. dysgalactiae MMX 5121
  MIC: 0.25 µg/mL (≈ 0.173 µM)
Streptococci; S. dysgalactiae MMX 5123
  MIC: 0.5 µg/mL (≈ 0.345 µM)
Streptococci; S. dysgalactiae MMX 5124
  MIC: 0.25 µg/mL (≈ 0.173 µM)
Streptococci; S. mitis (MGS) MMX 1205 ATCC 49456
  MIC: 0.5 µg/mL (≈ 0.345 µM)
Streptococci; S. mitis (MGS) MMX 5798
  MIC: 0.25 µg/mL (≈ 0.173 µM)
Streptococci; S. oralis (MGS) MMX 5821
  MIC: 0.25 µg/mL (≈ 0.173 µM)
Streptococci; S. pneumoniae MMX 432, PRSP
  MIC: 0.25 µg/mL (≈ 0.173 µM)
Streptococci; S. pneumoniae MMX 747
  MIC: 0.12 µg/mL (≈ 0.0828 µM)
Streptococci; S. pneumoniae MMX 1195 ATCC 49619, PISP
  MIC: 0.25 µg/mL (≈ 0.173 µM)
Streptococci; S. pyogenes MMX 404 ATCC 19615
  MIC: 0.25 µg/mL (≈ 0.173 µM)
Streptococci; S. pyogenes MMX 946, ermR
  MIC: 0.25 µg/mL (≈ 0.173 µM)
Streptococci; S. pyogenes MMX 8778
  MIC: 0.25 µg/mL (≈ 0.173 µM)
Enterococci; E. faecalis MMX 101 ATCC 29212, VSE
  MIC: 2 µg/mL (≈ 1.38 µM)
Enterococci; E. faecalis MMX 1086, VanA VRE
  MIC: > 64 µg/mL
Enterococci; E. faecalis MMX 4176
  MIC: 1 µg/mL (≈ 0.69 µM)
Enterococci; E. faecium MMX 173, VanB VRE
  MIC: > 64 µg/mL
Enterococci; E. faecium MMX 851, VanA VRE
  MIC: > 64 µg/mL
Enterococci; E. faecium MMX 4204
  MIC: 0.5 µg/mL (≈ 0.345 µM)
C. perfringens
  MIC: 0.5 µg/mL (≈ 0.345 µM)
